Literature values in paper PMC9486889 (Japanese Journal of Clinical Oncology, 2022).

How the values were obtained:
HDAC2 = conditions: cited from earlier work
HDAC3 = conditions: cited from earlier work

In the case of `Nc1cc(F)ccc1NC(=O)c1ccc(CNC(=O)/C=C/c2cccnc2)cc1` [HBI-8000, tucidinostat], the “Inhibition of HDAC activity” value (HDAC2) is listed as “selectively inhibits” and the “Inhibition of HDAC activity” value (HDAC3) is listed as “selectively inhibits”.
